Laboratory results taken from patent US20180273531A1, “PYRIMIDINE COMPOUND AND MEDICAL USE THEREOF” (Japan Tobacco Inc., priority 2004, published 2018).

Assays:
Assay type in all cases: cell-based
[1] = tested on: Renal cancer cell line ACHN cell; assay: Growth inhibitory effect against cancer cell lines (3H-thymidine uptake), ACHN; settings: Homo sapiens, ACHN
Experimental: (§1) Renal cancer cell line ACHN cell or colorectal cancer cell line HT-29 cells were cultured in a 96 well plate at 1.0×10^4 cells/90 μL/well for 24 hrs, then a test substance dissolved in DMSO (dimethyl sulfoxide) was added. After 18 hrs, ^3H-thymidine (0.25 μCi/well) was added and the cells were cultured for 6 hrs. Using a cell harvester, the cells were recovered on a UniFilter-96 GF/B glass filter and the ^3H radioactivity uptaken by the cells was measured by TopCount (Packard). As a control, DMSO was used and the activity of the test substance was expressed in the concentration (IC50) necessary for inhibiting ^3H radioactivity uptaken by the cell to 50% of that of the control group. The measurements were made in triplicate.

[2] = tested on: colorectal cancer cell line HT-29 cells; assay: Growth inhibitory effect against cancer cell lines (3H-thymidine uptake), HT-29; settings: Homo sapiens, HT-29, inhibition of 3H-thymidine uptake; test substance 18 hrs, then 3H-thymidine 6 hrs; triplicate
Experimental: as §1

p15 protein = assay: Evaluation of p15 induction activity (Western blotting); settings: test substance 0.1 μM, 24 hrs, ACHN cells or HT-29 cells, compared to DMSO, n=2
Experimental: ACHN cells or HT-29 cells were cultured in a 6 well plate at 2.5×10^5 cells/1.8 mL/well for 24 hrs, then a test substance (0.1 μM) dissolved in DMSO was added. After 24 hrs, cells were detached using trypsin-EDTA (ethylene diamine tetraacetic acid) and solubilized with NuPAGE LDS sample buffer (Invitrogen). Using an RC DC protein assay kit (BIO-RAD), the protein concentration of the sample was quantitated, and a sample in an amount corresponding to 10 μg of BSA (bovine serum albumin) was analyzed by Western blotting using an anti-p15 antibody. The density of the band stained with the anti-p15 antibody was measured by a densitometer to quantify the amount of p15 protein. As a control, DMSO was used and the test was performed with n=2 and the average protein amount was determined.

Compound	IC50 [1] [nM]	IC50 [2] [nM]	fold induction at 0.1 µM (p15 protein)
Cc1c(=O)n(C)c(Nc2ccc(I)cc2F)c2c(=O)n(C3CC3)c(=O)n(-c3cccc(NS(=O)(=O)N(C)C)c3)c12 [Example 4-33]	< 10	< 10	–
CN(C)c1ccc(Nc2cc(=O)n(C)c3c2c(=O)n(C2CC2)c(=O)n3-c2cccc(F)c2)cc1 [Example 1-133]	–	100 to 1000	≥ 1.5
Cn1c(=O)cc(Nc2ccc(Br)cc2)c2c(=O)n(C3CC3)c(=O)n(-c3cccc(NS(C)(=O)=O)c3)c21 [Example 1-304]	100 to 1000	10 to 100	–
Cc1c(=O)n(C)c(Nc2ccc(Br)cc2)c2c(=O)n(C3CC3)c(=O)n(-c3ccccc3)c12 [Example 3-1]	100 to 1000	100 to 1000	–
Cn1ccc2cc(Nc3cc(=O)n(C)c4c3c(=O)n(C3CC3)c(=O)n4-c3ccccc3)ccc21 [Example 1-138]	–	100 to 1000	≥ 1.5
CNc1ccc(Nc2cc(=O)n(C)c3c2c(=O)n(C2CC2)c(=O)n3-c2ccccc2)cc1 [Example 1-136]	–	100 to 1000	≥ 1.5
CCn1c(=O)c2c(Nc3ccc(I)cc3F)n(C)c(=O)c(C)c2n(-c2cccc(NS(=O)(=O)CC)c2)c1=O [Example 4-19]	10 to 100	< 10	–
Cn1c(=O)c2c(Nc3ccc(Cl)cc3)cc(=O)n(C)c2n(-c2ccccc2)c1=O [Example 1-35]	–	–	≥ 1.5
CCNc1ccc(Nc2cc(=O)n(C)c3c2c(=O)n(-c2ccccc2)c(=O)n3-c2ccccc2)cc1 [Example 1-65]	–	–	≥ 1.5
Cn1c(=O)cc(Nc2ccc(Cl)cc2)c2c(=O)n(C3CCCC3)c(=O)n(-c3ccccc3)c21 [Example 1-80]	–	–	≥ 1.5
CCCC(CCC)c1ccc(Nc2cc(=O)n(C)c3c2c(=O)n(-c2ccccc2)c(=O)n3-c2ccccc2)cc1 [Example 1-40]	–	–	≥ 1.5
CCn1ccc2cc(Nc3cc(=O)n(C)c4c3c(=O)n(C3CC3)c(=O)n4-c3ccccc3)ccc21 [Example 1-167]	–	–	≥ 1.5
Cn1c(=O)cc(Nc2ccc(Cl)c(Cl)c2)c2c(=O)n(-c3ccccc3)c(=O)n(-c3ccccc3)c21 [Example 1-17]	–	–	≥ 1.5
Cc1cccc(-n2c(=O)n(C3CC3)c(=O)c3c(Nc4ccc(N(C)C)cc4)cc(=O)n(C)c32)c1 [Example 1-127]	–	100 to 1000	≥ 1.5
Cn1c(=O)cc(Nc2ccc(Br)cc2F)c2c(=O)n(C3CC3)c(=O)n(-c3cccc(NS(=O)(=O)CCN4CCOCC4)c3)c21 [Example 1-339]	100 to 1000	–	–
CCn1c(=O)c2c(Nc3ccc(N(C)C)cc3)cc(=O)n(C)c2n(-c2ccccc2F)c1=O [Example 1-117]	–	100 to 1000	≥ 1.5
CCc1ccc(Nc2c3c(=O)n(C4CC4)c(=O)n(-c4cccc(NS(C)(=O)=O)c4)c3c(C)c(=O)n2CC)c(F)c1 [Example 4-39]	100 to 1000	–	–
CCn1c(=O)c2c(Nc3ccc(Br)cc3)cc(=O)n(C)c2n(-c2cccnc2)c1=O [Example 1-131]	–	–	≥ 1.5
CCn1c(=O)c2c(Nc3ccc(Br)cc3)cc(=O)n(C)c2n(-c2ccccc2C)c1=O [Example 1-111]	–	100 to 1000	≥ 1.5

Compound	IC50 [1] [nM]	IC50 [2] [nM]	fold induction at 0.1 µM (p15 protein)
Cc1ccc(Nc2cc(=O)n(C)c3c2c(=O)n(C2CC2)c(=O)n3-c2ccccc2)c(F)c1 [Example 1-168]	–	10 to 100	≥ 1.5
Cn1c(=O)cc(Nc2ccc(Cl)cc2Cl)c2c(=O)n(C3CC3)c(=O)n(-c3ccccc3)c21 [Example 1-163]	–	100 to 1000	≥ 1.5
Cc1ccc(-n2c(=O)n(C3CC3)c(=O)c3c(Nc4ccc(N(C)C)cc4)cc(=O)n(C)c32)cc1 [Example 1-126]	–	100 to 1000	≥ 1.5
COc1ccc(-n2c(=O)n(C3CC3)c(=O)c3c(Nc4ccc(Br)cc4)cc(=O)n(C)c32)cc1 [Example 1-183]	–	100 to 1000	≥ 1.5
COc1ccc(Nc2cc(=O)n(C)c3c2c(=O)n(C2CC2)c(=O)n3-c2ccccc2)c(C)c1 [Example 1-154]	–	–	≥ 1.5
Cn1c(=O)cc(Nc2ccc(Cl)cc2)c2c(=O)n(-c3ccc(F)cc3)c(=O)n(-c3ccc(F)cc3)c21 [Example 1-79]	–	–	≥ 1.5
CCc1ccc(Nc2c3c(=O)n(C4CC4)c(=O)n(-c4cccc(NC(C)=O)c4)c3c(C)c(=O)n2CC)c(F)c1 [Example 4-47]	100 to 1000	–	–
Cn1c(=O)cc(Nc2ccc3[nH]ccc3c2)c2c(=O)n(C3CC3)c(=O)n(-c3ccccc3)c21 [Example 1-165]	–	100 to 1000	≥ 1.5
Cn1c(=O)cc(NCC(C)(C)C)c2c(=O)n(-c3ccccc3)c(=O)n(-c3ccccc3)c21 [Example 1-36]	–	–	≥ 1.5
Cn1c(=O)cc(Nc2ccc(C(=O)O)cc2)c2c(=O)n(-c3ccccc3)c(=O)n(-c3ccccc3)c21 [Example 1-37]	–	–	≥ 1.5
Cn1c(=O)cc(Nc2ccc(F)cc2)c2c(=O)n(-c3ccccc3)c(=O)n(-c3ccccc3)c21 [Example 1-8]	–	–	≥ 1.5
Cc1cc(Nc2cc(=O)n(C)c3c2c(=O)n(C2CC2)c(=O)n3-c2ccccc2)ccc1Br [Example 1-157]	–	–	≥ 1.5
CNS(=O)(=O)c1cccc(-n2c(=O)n(C3CC3)c(=O)c3c(Nc4ccc(Br)cc4F)cc(=O)n(C)c32)c1 [Example 1-294]	10 to 100	–	–
COc1ccccc1-n1c(=O)n(C2CC2)c(=O)c2c(Nc3ccc(Br)cc3F)cc(=O)n(C)c21 [Example 1-166]	–	10 to 100	≥ 1.5
Cn1c(=O)cc(Nc2ccc(Br)cc2)c2c(=O)n(C3CCC3)c(=O)n(-c3ccccc3)c21 [Example 1-107]	–	–	≥ 1.5
Cc1ccccc1-n1c(=O)n(CC(F)(F)F)c(=O)c2c(Nc3ccc(Br)cc3)cc(=O)n(C)c21 [Example 1-108]	–	–	≥ 1.5
CC(C)n1c(=O)c2c(Nc3ccc(Cl)cc3)cc(=O)n(C)c2n(-c2ccccc2)c1=O [Example 1-81]	–	–	≥ 1.5
CCn1c(=O)c2c(Nc3ccc(Cl)cc3)cc(=O)n(C)c2n(-c2ccccc2C)c1=O [Example 1-109]	–	–	≥ 1.5
Cc1cc(Cl)ccc1Nc1cc(=O)n(C)c2c1c(=O)n(-c1ccccc1)c(=O)n2-c1ccccc1 [Example 1-53]	–	–	≥ 1.5

Compound	IC50 [1] [nM]	IC50 [2] [nM]	fold induction at 0.1 µM (p15 protein)
Cc1cc(Br)ccc1Nc1cc(=O)n(C)c2c1c(=O)n(C1CC1)c(=O)n2-c1ccccc1 [Example 1-156]	–	100 to 1000	≥ 1.5
Cn1c(=O)cc(Nc2ccc(O)cc2)c2c(=O)n(C3CC3)c(=O)n(-c3ccccc3)c21 [Example 1-172]	–	–	≥ 1.5
CCNc1ccc(Nc2cc(=O)n(C)c3c2c(=O)n(C2CC2)c(=O)n3-c2ccccc2)cc1 [Example 1-137]	–	–	≥ 1.5
CN(C)c1ccc(Nc2cc(=O)n(C)c3c2c(=O)n(C2CC2)c(=O)n3-c2ccc(F)cc2)cc1 [Example 1-132]	–	100 to 1000	≥ 1.5
CCn1c(=O)c2c(Nc3ccc(Br)cc3)cc(=O)n(C)c2n(-c2ccccc2F)c1=O [Example 1-116]	–	100 to 1000	≥ 1.5
CN(C)c1ccc(Nc2cc(=O)n(C)c3c2c(=O)n(C2CC2)c(=O)n3-c2ccccc2)cc1F [Example 1-143]	–	100 to 1000	≥ 1.5
CC1CC1n1c(=O)c2c(Nc3ccc(Br)cc3)cc(=O)n(C)c2n(-c2ccccc2)c1=O (stereo not shown) [Example 1-153]	–	100 to 1000	≥ 1.5
CCn1c(=O)c2c(Nc3ccc(N(C)C)cc3)cc(=O)n(C)c2n(-c2ccccc2C)c1=O [Example 1-110]	–	–	≥ 1.5
COc1ccc(Nc2cc(=O)n(C)c3c2c(=O)n(C2CC2)c(=O)n3-c2ccccc2)c(OC)c1 [Example 1-146]	–	–	≥ 1.5
Cn1c(=O)cc(Nc2ccc(F)cc2F)c2c(=O)n(C3CC3)c(=O)n(-c3ccccc3)c21 [Example 1-162]	–	–	≥ 1.5
Cn1c(=O)cc(Nc2ccccc2)c2c(=O)n(-c3ccccc3)c(=O)n(-c3ccccc3)c21 [Example 1-12]	–	–	≥ 1.5
CCCc1ccc(Nc2cc(=O)n(C)c3c2c(=O)n(C2CC2)c(=O)n3-c2ccccc2)c(F)c1 [Example 1-258]	–	100 to 1000	–
Cn1c(=O)cc(Nc2ccc(Br)c(F)c2)c2c(=O)n(C3CC3)c(=O)n(-c3ccccc3)c21 [Example 1-151]	–	100 to 1000	≥ 1.5
Cn1c(=O)cc(Nc2ccc(N)cc2)c2c(=O)n(-c3ccccc3)c(=O)n(-c3ccccc3)c21 [Example 1-46]	–	–	≥ 1.5
CCn1c(=O)c2c(Nc3ccc(Br)cc3)cc(=O)n(C)c2n(-c2ccccc2)c1=O [Example 1-96]	–	100 to 1000	≥ 1.5
Cn1c(=O)cc(Nc2ccccc2F)c2c(=O)n(C3CC3)c(=O)n(-c3ccccc3)c21 [Example 1-173]	–	–	≥ 1.5
Cn1c(=O)cc(Nc2ccc3c(c2)OCO3)c2c(=O)n(-c3ccccc3)c(=O)n(-c3ccccc3)c21 [Example 1-16]	–	–	≥ 1.5
CCCCC(=O)NCCC(=O)Nc1cccc(-n2c(=O)n(C3CC3)c(=O)c3c(Nc4ccccc4F)n(C)c(=O)c(C)c32)c1 [Example 4-13]	–	100 to 1000	–
